Reference: patent US3953501A, “Triiodoisophthalic acid monoamino acid amides” (Schering Aktiengesellschaft, priority 1972, dated 1976)
“And” between values parts separate entries of the source, which are not always exact repeats. Equal values may be shown once.

Legend:
Assay type in all cases: in vivo
[1] = tested on: rats; experiment: Intracerebral compatibility according to Valzelli; settings: methylglucamine salts, 200 mg. I/ml., dose evoking neurological symptoms (including convulsions and death) in 50% of animals, (1) = Iotalamat (H), (2) = compound
Protocol: (§1) All substances were tested as methylglucamine salts with 200 mg. I/ml. of solution. The intracerebral compatibility was determined on rats in accordance with Valzelli, Med. Exp. 11: 23-26 (1964).
(§2) As a measure of physiological compatibility, the ED50 was determined in each case, i.e., the dose at which an undesired array of neurological symptoms (including convulsions and death) is evoked in 50% of the animals.

[2] = tested on: rats; experiment: Cisternal compatibility (injection into suboccipital cisterna); settings: 0.008 - 0.200 ml./kg., methylglucamine salts, 200 mg. I/ml., neurological symptoms in 50% of animals, (1) = Iotalamat (H), (2) = compound
Protocol: as §1
In order to determine the cisternal compatibility, the test compounds were injected in varying doses (0.008 - 0.200 ml./kg.) by means of a Hamilton No. 710 syringe directly into the suboccipital cisterna of rats which were under a slight ether narcosis.
as §2

[3] = tested on: rats; experiment: Cerebral compatibility (injection into left common carotid artery); settings: 14.0 - 26.0 ml./kg., methylglucamine salts, 200 mg. I/ml., neurological symptoms in 50% of animals, (1) = Iotalamat (H), (2) = compound
Protocol: as §1
Cerebral compatibility was likewise determined on rats. In an operation under a slight ether narcosis, a catheter was affixed in the left common carotid artery; the distal end of the catheter, after having been passed through the lateral connective tissue of the neck, was fixed in the center of the back. Three hours later, the test compounds were cranially injected in varying doses (14.0 - 26.0 ml./kg.) into the artery.
as §2

Row | SMILES | ED50 intracerebral compatibility according to Valzelli (myelography) [1] | ED50 cisternal compatibility (myelography) [2] | ED50 cerebral compatibility (angiography) [3] [g I/kg]
1 | CNC(=O)C(C)NC(=O)c1c(I)c(NC(C)=O)c(I)c(C(=O)O)c1I (racemic) [B, N-(3-Carboxy-5-acetamido-2,4,6-triiodobenzoyl)-DL-alanine Methylamide] | 66.30 mg. I/kg. | 16.7 mg. I/kg. | –
2 | CNC(=O)C(CO)NC(=O)c1c(I)c(NC(=O)COC)c(I)c(C(=O)O)c1I (racemic) [F, N-(3-Carboxy-5-methoxyacetamido-2,4,6-triiodobenzoyl)-DL-serine Methylamide] | 81.32 mg. I/kg. | 22.8 mg. I/kg. | 3.78
3 | CC(=O)Nc1c(I)c(C(=O)O)c(I)c(C(=O)NCC(N)=O)c1I [A, N-(3-Carboxy-5-acetamido-2,4,6-triiodobenzoyl)-glycine Amide] | 70.72 mg. I/kg. | 11.17 mg. I/kg. | –
4 | CNC(=O)CNC(=O)c1c(I)c(NC(=O)COC)c(I)c(C(=O)O)c1I [C, N-(3-Carboxy-5-methoxyacetamido-2,4,6-triiodobenzoyl)-glycine Methylamide] | 53.97 mg. I/kg. | 20.04 mg. I/kg. | –
5 | CNC(=O)c1c(I)c(NC(C)=O)c(I)c(C(=O)N(C)CC(=O)O)c1I [D, N-(3-Methylaminocarbonyl-5-acetamido-2,4,6-triiodobenzoyl)-sarcosine] | 76.21 mg. I/kg. | 11.93 mg. I/kg. | 3.99
6 | CC(=O)Nc1c(I)c(C(N)=O)c(I)c(C(=O)NCC(=O)O)c1I [E, N-(3-Aminocarbonyl-5-acetamido-2,4,6-triiodobenzoyl)-glycine] | 69.84 mg. I/kg. | 14.42 mg. I/kg. | –
7 | CNC(=O)CNC(=O)c1c(I)c(NC(=O)CO)c(I)c(C(=O)O)c1I [G, N-(3-Carboxy-5-hydroxyacetamido-2,4,6-triiodobenzoyl)-glycine Methylamide] | 62.62 mg. I/kg. | 11.8 mg. I/kg. | 3.55
8 | CNC(=O)c1c(I)c(NC(C)=O)c(I)c(C(=O)O)c1I [H, 3-acetamido-5-methylcarbamoyl-2,4,6-triiodobenzoic acid, reference compound] | 59.83 mg. I/kg. and 56.59 mg. I/kg. and 60.86 mg. I/kg. and 61.92 mg. I/kg. and 61.28 mg. I/kg. | 10.56 mg. I/kg. and 11.8 mg. I/kg. and 9.8 mg. I/kg. and 10.9 mg. I/kg. and 10.07 mg. I/kg. and 10.30 mg. I/kg. | –
